Test system: 883617-216-R-J1-PDC complex spheroids, growth, % test/control
Assay: Anticancer human tumor 883617-216-R-J1-PDC patient-derived bladder carcinoma cell line growth inhibition [AhR]
Settings: for IC50: curve of first compound; for viability, T/C: stronger effect = lower value
Description: Multicellular complex tumor spheroid response to aryl hydrocarbon receptor antagonists in combination with a variety of drugs and investigational agents in selected tumor cell lines
The current study was undertaken to assess response to aryl hydrocarbon receptor antagonists in combination with standard-of-care drugs and investigational agents in solid tumor complex spheroid models. Complex spheroids include a stromal component modeled by human endothelial cells (HUVEC) and fibroblasts modeled by human mesenchymal stem cells (MSCs). The concentration ranges selected for each drug and investigational agent were based upon clinically achievable concentrations if the clinical Cmax of the agent was known.
Compounds. The drugs and investigational agents: BAY 2416964 (NSC825713), GNF351 (NSC835774), CH-223191 (NSC835775), CPI-455 (NSC825282), aza-TdCyd (NSC777586), decitabine (NSC127716), belinostat (NSC758774), entinostat (NSC756642), pevonedistat (NSC761192), tazemetostat (NSC777109), talazoparib (NSC765396), olaparib (NSC753686), selinexor (NSC780203), nedisertib (M3814, NSC802822), bortezomib (NSC756655), venetoclax (NSC766270), doxorubicin (NSC123127), elimusertib (BAY189344, NSC800525), ceralasertib (AZD6738, NSC777638), TAK-243 (NSC785004), alisertib (NSC759677), etoposide (NSC141540), topotecan (NSC609699), eribulin (NSC707389), gemcitabine (NSC613327), carboplatin (NSC241240), cisplatin (NSC119875), and SN-38 (NSC673596) were obtained from the National Cancer Institute (NCI) Developmental Therapeutics Program Chemical Repository (32). The FDA-approved anticancer drug set is available from the Developmental Therapeutics Program at https://dtp.cancer.gov/organization/dscb/obtaining/available plates.htm. […] The stock solutions were prepared in dimethyl sulfoxide (DMSO, Sigma-Aldrich, St. Louis, MO, cat. D2650), except for the platinum compounds which were prepared in saline (Quality Biological, Gaithersburg, MD, cat. 114-055-101), at 800-fold the tested concentration and stored at -70 degrees C prior to their use. All drugs and investigational agents were tested over a range starting from a high concentration at or near the clinical Cmax and decreasing in half-log increments. If the clinical Cmax for an agent had not been determined, the highest concentration tested was 10 microM (Table 1).
Cell Culture. All cells were maintained in an incubator at 37 degrees C and 5% CO2 with 95% humidity. The PDC lines were cultured according to standard operating procedures established by the NCI PDMR (https://pdmr.cancer.gov). Briefly, all PDCs were thawed and cultured in Matrigel-coated flasks prepared with a working solution of 1X Ham's F-12 nutrient mix, without supplementation (Invitrogen, Waltham, MA, cat. 11765054), 100 U/mL penicillin-streptomycin (Invitrogen, cat. 15140122), and 2.5% Matrigel (Corning Inc., Corning, NY, cat. 354248) for the first three passages. All PDCs were cultured in complete DMEM/F-12 media containing advanced DMEM/F-12 (Invitrogen, cat. 12634028), 4.9% defined fetal bovine serum, heat inactivated (HyClone Laboratories Inc., Logan, UT, cat. SH30070.03HI), 389 ng/mL hydrocortisone (Sigma-Aldrich, cat. H4001), 9.7 ng/mL human EGF recombinant protein (Invitrogen, cat. PHG0313), 23.4 microg/mL adenine (Sigma-Aldrich, cat. A2786), 97.3 U/mL penicillin-streptomycin (Invitrogen, cat. 15140122), 1.9 mM L-glutamine (Invitrogen, cat. 25030081), and 9.7 microM Y-27632 dihydrochloride (Tocris Bioscience, Bristol, United Kingdom, cat. 1254). The PDCs were cultured in complete DMEM/F12 media without 10 microM Y-27632 dihydrochloride for at least two passages prior to the screen. The established cell lines NCI-H1341 and […] were cultured in DMEM/F-12, HEPES (Invitrogen, cat. 11330032), 5% defined fetal bovine serum (HyClone Laboratories Inc., cat. SH30070.03), ITS premix universal culture supplement [insulin (5 microg/mL), transferrin (5 microg/mL), and selenious acid (5 ng/mL)] […]

[1] = second compound 0.1 µM, first compound 0.0316 µM
[2] = second compound 0.1 µM, first compound 0.1 µM
[3] = second compound 0.1 µM, first compound 0.316 µM
[4] = second compound 0.1 µM, first compound 1 µM
[5] = second compound 0.1 µM, first compound 3.16 µM
[6] = second compound 0.1 µM, first compound 10 µM
[7] = second compound 0.316 µM, first compound 0.0316 µM
[8] = second compound 0.316 µM, first compound 0.1 µM
[9] = second compound 0.316 µM, first compound 0.316 µM
[10] = second compound 0.316 µM, first compound 1 µM
[11] = second compound 0.316 µM, first compound 3.16 µM
[12] = second compound 0.316 µM, first compound 10 µM
[13] = second compound 1 µM, first compound 0.0316 µM
[14] = second compound 1 µM, first compound 0.1 µM
[15] = second compound 1 µM, first compound 0.316 µM
[16] = second compound 1 µM, first compound 1 µM
[17] = second compound 1 µM, first compound 3.16 µM
[18] = second compound 1 µM, first compound 10 µM
[19] = second compound 3.16 µM, first compound 0.0316 µM
[20] = second compound 3.16 µM, first compound 0.1 µM
[21] = second compound 3.16 µM, first compound 0.316 µM
[22] = second compound 3.16 µM, first compound 1 µM
[23] = second compound 3.16 µM, first compound 3.16 µM
[24] = second compound 3.16 µM, first compound 10 µM
[25] = second compound 10 µM, first compound 0.0316 µM
[26] = second compound 10 µM, first compound 0.1 µM
[27] = second compound 10 µM, first compound 0.316 µM
[28] = second compound 10 µM, first compound 1 µM
[29] = second compound 10 µM, first compound 3.16 µM
[30] = second compound 10 µM, first compound 10 µM
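Further: exposure lasted 7 days after dosing on day 3 of spheroid growth.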

| IC50 (second compound 0.1 µM) [µM] | IC50 (second compound 0.316 µM) [µM] | IC50 (second compound 1 µM) [µM] | IC50 (second compound 3.16 µM) [µM] | IC50 (second compound 10 µM) [µM] | SMILES | viability, T/C [1] [%] | viability, T/C [2] [%] | viability, T/C [3] [%] | viability, T/C [4] [%] | viability, T/C [5] [%] | viability, T/C [6] [%] | viability, T/C [7] [%] | viability, T/C [8] [%] | viability, T/C [9] [%] | viability, T/C [10] [%] | viability, T/C [11] [%] | viability, T/C [12] [%] | viability, T/C [13] [%] | viability, T/C [14] [%] | viability, T/C [15] [%] | further results |
| --- | --- | --- | --- | --- | --- | --- | --- | --- | --- | --- | --- | --- | --- | --- | --- | --- | --- | --- | --- | --- | --- |
| 0.607 | 0.664 | 0.834 | 1.04 | < 0.0316 | Nc1ccccc1NC(=O)c1ccc(CNC(=O)OCc2cccnc2)cc1 + Cc1cncc(-c2nc(NCCc3c[nH]c4ccccc34)c3ncn(C(C)C)c3n2)c1 | 81.2 | 78.8 | 66.7 | 37 | 11.3 | 1.5 | 88.1 | 79.7 | 68.5 | 40.1 | 14.4 | 0.94 | 96.6 | 93.7 | 77.8 | viability, T/C [16]: 44.6%; viability, T/C [17]: 14.1%; viability, T/C [18]: 0.83%; viability, T/C [19]: 109%; viability, T/C [20]: 105%; viability, T/C [21]: 83.2%; viability, T/C [22]: 51.1%; viability, T/C [23]: 18.9%; viability, T/C [24]: 0.37%; viability, T/C [25]: 41.6%; viability, T/C [26]: 42.5%; viability, T/C [27]: 35.8%; viability, T/C [28]: 21.3%; viability, T/C [29]: 11.1%; viability, T/C [30]: 0.35% |
| 0.788 | 1.5 | 1.91 | 10 | 1.17 | NS(=O)(=O)OCC1CC(n2ccc3c(NC4CCc5ccccc54)ncnc32)CC1O (stereo not given) + CC(CO)NC(=O)c1cc(-c2ccc(Cl)cc2)nn(-c2cnn(C)c2)c1=O | 96.4 | 90.6 | 87.1 | 40.6 | 21 | 27.2 | 55 | 94 | 63.4 | 61.5 | 28.2 | 29.2 | 64.6 | 55.6 | 109 | viability, T/C [16]: 67.6%; viability, T/C [17]: 30.7%; viability, T/C [18]: 42%; viability, T/C [19]: 75.8%; viability, T/C [20]: 108%; viability, T/C [21]: 55.6%; viability, T/C [22]: 65.9%; viability, T/C [23]: 27%; viability, T/C [24]: 72.7%; viability, T/C [25]: 72.3%; viability, T/C [26]: 109%; viability, T/C [27]: 80.1%; viability, T/C [28]: 51.1%; viability, T/C [29]: 32.4%; viability, T/C [30]: 16.4% |

From PubChem BioAssay AID1919004 (Molecular Pharmacology Branch, DTP, NCI, 2023)
